Values of other authors as cited in patent US12447129B2, “Solid dosage form production” (University of Lancashire, priority 2014, dated 2025).

Experiments:
[1] = plasticiser alone; input to the calculation
[2] = at 25° C.

Tg (K) plasticiser [1] [K] | water sol. [2] [mg/L] | SMILES
203.55 | – | CCOC(=O)CC(O)(CC(=O)OCC)C(=O)OCC [TEC]
193.7 | – | CC(=O)OCC(COC(C)=O)OC(C)=O [Triacitin]
– | 7360 | Cn1c(=O)c2[nH]cnc2n(C)c1=O [theophylline]
